Experimental data published in patent US20250082674A1, “METHODS OF TREATING COPPER METABOLISM-ASSOCIATED DISEASES OR DISORDERS” (priority 2021, published 2025).
“And” between values parts separate entries of the source, which are not always exact repeats. Identical values can stand only once. Like-named read-outs stand apart in the source and are kept apart here.

Key:
[1] = system: patients with Wilson disease (WD)
Description: The UWDRS Part II total score results for this pooled population are presented in Table 16 and FIG. 13 and the UWDRS Part III total score results are in Table 17 and FIG. 14. The UWDRS Part III Functional Subscale (comprised of the items arising from a chair, gait, handwriting and speech) results for this pooled population are presented in Table 18 and FIG. 15.

copper = experiment: Study 301: plasma copper pharmacodynamics (dNCC, LBC, plasma total copper; daily mean AUEC); format: in vivo, human; settings: for Mean Daily dNCC AUEC0-48w, Mean (SD): Full Analysis Set; for Mean Daily dNCC AUEC0-48w, Mean (SD) / Mean Daily dNCC AUEC0-48w, LSM (SE): multiple imputation
Description: FIG. 1 provides a schematic view of the study design. […] This study is referred throughout as Study 301.
The primary endpoint integrated copper mobilization and sequestration (i.e., copper control) throughout the 48-week Primary Treatment Period by assessment of daily mean area under the effect-time curve (AUEC) of directly measured non-ceruloplasmin-bound copper (dNCC) concentration. […] Measurement of dNCC in plasma is highly sensitive and accurate, requiring no special formulas or assumptions. As proposed, dNCC AUEC0-48W is an indirect measure of copper mobilization and sequestration.
This assessment is also applicable to SoC treatments. In addition, plasma Cp, CpC, plasma total copper, and LBC were measured with AUEC calculated for plasma total copper and LBC.
Pharmacodynamics: Blood samples were collected to directly measure plasma total copper, PUF copper, dNCC, and LBC. Calculations may be performed for cNCC and cNCCconnected, the latter of which is non-ceruloplasmin-bound and non-molybdenum-albumin-bound copper.
The AUEC for dNCC concentration was calculated using the trapezoidal rule, and then divided by number of days to yield a mean daily AUEC plasma dNCC concentration from baseline to Week 48 (expressed as μmol/L and described as AUEC0-48W).
Tests were performed at a significance level of 0.05 (2-sided).

[2] = Study 301, Cohort 1, lower part of Table 5
[3] = Study 301, Cohort 2, lower part of Table 5
[4] = Study 301, Overall, lower part of Table 5

Bis-choline tetrathiomolybdate [BC-TTM]
UWDRS Part III Functional Subscale (Range 0-10) LSM change from baseline ([1]; BC-TTM exposure 216 wks): −0.430
UWDRS Part III Functional Subscale (Range 0-10) Mean change from baseline ([1]; BC-TTM exposure 216 wks): −1.519
UWDRS Part III (Range 0-175) LSM change from baseline ([1]; BC-TTM exposure 240 wks): −6.49
UWDRS Part III (Range 0-175) Mean change from baseline ([1]; BC-TTM exposure 240 wks): 11.48
UWDRS Part III Functional Subscale (Range 0-10) LSM change from baseline ([1]; BC-TTM exposure 240 wks): −0.607
UWDRS Part III Functional Subscale (Range 0-10) Mean change from baseline ([1]; BC-TTM exposure 240 wks): −0.898
UWDRS Part III (Range 0-175) LSM change from baseline ([1]; BC-TTM exposure 264 wks): −9.57
UWDRS Part III (Range 0-175) Mean change from baseline ([1]; BC-TTM exposure 264 wks): −14.00
UWDRS Part III Functional Subscale (Range 0-10) LSM change from baseline ([1]; BC-TTM exposure 264 wks): −0.818
UWDRS Part III Functional Subscale (Range 0-10) Mean change from baseline ([1]; BC-TTM exposure 264 wks): −0.995
UWDRS Part III (Range 0-175) Mean ([1]; Baseline, observed value): 15.43
UWDRS Part III Functional Subscale (Range 0-10) Mean ([1]; Baseline, observed value): 1.590
UWDRS Part II, Part III and Part III Functional Subscale scores over up to 5 years ([1]; Pooled Studies 301 and 201): continuing improvement
UWDRS Part II Score (Range 0-40), change from baseline, Mean (SD) ([1]; Pooled Studies 301 and 201, BC-TTM exposure 4 weeks): −0.3 (2.28)
UWDRS Part II Score (Range 0-40), change from baseline, Mean (SD) ([1]; Pooled Studies 301 and 201, BC-TTM exposure 12 weeks): −0.4 (2.76)
UWDRS Part II Score (Range 0-40), change from baseline, Mean (SD) ([1]; Pooled Studies 301 and 201, BC-TTM exposure 24 weeks): −0.4 (3.42)
UWDRS Part II Score (Range 0-40), change from baseline, Mean (SD) ([1]; Pooled Studies 301 and 201, BC-TTM exposure 36 weeks): −0.9 (4.11)
UWDRS Part II Score (Range 0-40), change from baseline, Mean (SD) ([1]; Pooled Studies 301 and 201, BC-TTM exposure 48 weeks): −1.2 (4.24)
UWDRS Part II Score (Range 0-40), change from baseline, Mean (SD) ([1]; Pooled Studies 301 and 201, BC-TTM exposure 60 weeks): −1.4 (4.35)
UWDRS Part II Score (Range 0-40), change from baseline, Mean (SD) ([1]; Pooled Studies 301 and 201, BC-TTM exposure 72 weeks): −1.9 (4.74)
UWDRS Part II Score (Range 0-40), change from baseline, Mean (SD) ([1]; Pooled Studies 301 and 201, BC-TTM exposure 96 weeks): −2.5 (6.11)
UWDRS Part II Score (Range 0-40), change from baseline, Mean (SD) ([1]; Pooled Studies 301 and 201, BC-TTM exposure 120 weeks): −3.1 (6.82)
UWDRS Part II Score (Range 0-40), change from baseline, Mean (SD) ([1]; Pooled Studies 301 and 201, BC-TTM exposure 144 weeks): −3.3 (6.61)
UWDRS Part II Score (Range 0-40), change from baseline, Mean (SD) ([1]; Pooled Studies 301 and 201, BC-TTM exposure 168 weeks): −6.2 (10.17)
UWDRS Part II Score (Range 0-40), change from baseline, Mean (SD) ([1]; Pooled Studies 301 and 201, BC-TTM exposure 192 weeks): −5.9 (9.88)
UWDRS Part II Score (Range 0-40), change from baseline, Mean (SD) ([1]; Pooled Studies 301 and 201, BC-TTM exposure 216 weeks): −7.1 (10.90)
UWDRS Part II Score (Range 0-40), change from baseline, Mean (SD) ([1]; Pooled Studies 301 and 201, BC-TTM exposure 240 weeks): −6.6 (10.09)
UWDRS Part II Score (Range 0-40), change from baseline, Mean (SD) ([1]; Pooled Studies 301 and 201, BC-TTM exposure 264 weeks): −6.2 (9.02)
AUEC(0-48 week) LBC, Mean (copper; Study 301, Adolescent): 1.5 mmol/L
AUEC(0-48 week) LBC, Median (copper; Study 301, Adolescent): 1.2 mmol/L
AUEC(0-48 week) PTC (plasma total copper), Mean (copper; Study 301, Adolescent): 7.5 mmol/L
AUEC(0-48 week) PTC (plasma total copper), Median (copper; Study 301, Adolescent): 5.4 mmol/L
AUEC(0-48 week) dNCC, Mean (copper; Study 301, Adolescent): 2.7 mmol/L
AUEC(0-48 week) dNCC, Median (copper; Study 301, Adolescent): 2.3 mmol/L
AUEC(0-48 week) LBC, Mean (copper; Study 301, Adult): 1.8 mmol/L
AUEC(0-48 week) LBC, Median (copper; Study 301, Adult): 1.2 mmol/L
AUEC(0-48 week) PTC (plasma total copper), Mean (copper; Study 301, Adult): 7.8 mmol/L
AUEC(0-48 week) PTC (plasma total copper), Median (copper; Study 301, Adult): 7.3 mmol/L
AUEC(0-48 week) dNCC, Mean (copper; Study 301, Adult): 3.2 mmol/L
AUEC(0-48 week) dNCC, Median (copper; Study 301, Adult): 2.2 mmol/L
Mean Daily dNCC AUEC0-48w, LSM Diff (SE), BC-TTM vs SoC (copper; Study 301, Cohort 1): 1.64 (0.254) μmol/L
Mean Daily dNCC AUEC0-48w, Mean (SD) (copper; Study 301, Cohort 1 (prior SoC >28 days)): 2.68 (2.118) μmol/L
Mean Daily dNCC AUEC0-48w, LSM (SE) (copper; Study 301, Cohort 1, ANCOVA): 2.50 (0.150) μmol/L
Mean Daily dNCC AUEC0-48w, Between Group LSM Diff (SE) (copper; [2]): 1.72 (0.277) μmol/L
Mean Daily dNCC AUEC0-48w, Within Group LSM (SE) (copper; [2]): 2.59 (0.165) μmol/L
Mean Daily dNCC AUEC0-48w, LSM Diff (SE), BC-TTM vs SoC (copper; Study 301, Cohort 2): 3.79 (0.584) μmol/L
Mean Daily dNCC AUEC0-48w, Mean (SD) (copper; Study 301, Cohort 2 (treatment-naïve or SoC ≤28 days)): 4.58 (2.526) μmol/L
Mean Daily dNCC AUEC0-48w, LSM (SE) (copper; Study 301, Cohort 2, ANCOVA): 4.76 (0.319) μmol/L
Mean Daily dNCC AUEC0-48w, Between Group LSM Diff (SE) (copper; [3]): 3.68 (0.568) μmol/L
Mean Daily dNCC AUEC0-48w, Within Group LSM (SE) (copper; [3]): 4.64 (0.315) μmol/L
time of peak of plasma dNCC (copper; Study 301, FIG. 2): 4 to 6 weeks
Mean Daily dNCC AUEC0-48w, LSM Diff (SE), BC-TTM vs SoC (copper; Study 301, Overall): 2.18 (0.244) μmol/L
Mean Daily dNCC AUEC0-48w, LSM (SE) (copper; Study 301, Overall, ANCOVA): 3.18 μmol/L and 3.18 (0.167) μmol/L
Mean Daily dNCC AUEC0-48w, Mean (SD) (copper; Study 301, Overall): 3.12 (2.347) μmol/L
Mean Daily dNCC AUEC0-48w, Between Group LSM Diff (SE) (copper; [4]): 2.12 (0.253) μmol/L
Mean Daily dNCC AUEC0-48w, Within Group LSM (SE) (copper; [4]): 3.06 (0.179) μmol/L
